This experiment concerns male spontaneously hypertensive rats. The experiment is described as follows: Decrease in systolic blood pressure in spontaneously hypertensive rats after intravenous bolus injection, indirect (tail-cuff) method. Format: in vivo, rat. As to conditions: for Decrease in systolic blood pressure (mmHg) time after administration (hour) 0.5: 0.5 hour after administration; for Decrease in systolic blood pressure (mmHg) time after administration (hour) 4: 4 hours after administration. As for the experimental part: As test animals, four male spontaneously hypertensive rats (weight 400 to 440 g) that were sufficiently adapted for feeding and in which hypertension was confirmed were used.
Physiological saline aqueous solution containing 2.5% Nicolle and 2.5% ethanol of sample was intravenously administered by bolus injection at a dose of 1 ml per 1 kg of body weight. Systolic blood pressure after administration was measured by the indirect (tail-cuff) method.

The structures appear in SMILES notation.

On to `COc1cc(C(C#N)(CCCN2CCC(=C3c4ccccc4C=Cc4ccccc43)CC2)C(C)C)cc(OC)c1OC.Cl` (stereo not drawn) [Example 126, 5-(4-(5H-Dibenzo[a,d]cyclohepten-5-ylidene)-1-piperidinyl)-2-isopropyl-2-(3,4,5-trimethoxyphenyl)valeronitrile hydrochloride], for which, for the setting “dose 10 mg/kg i.v. bolus”, the “Decrease in systolic blood pressure (mmHg) time after administration (hour) 0.5” value (shortened to “Decrease in systolic blood pressure … (hour) 0.5”) was −87 mmHg and the “Decrease in systolic blood pressure (mmHg) time after administration (hour) 4” value (“Decrease in systolic blood pressure … (hour) 4” below) is −19 mmHg.
Turning to `Cl.Clc1ccccc1CN1CCC(=C2c3ccccc3C=Cc3ccccc32)CC1` [Example 128, 1-(2-Chlorobenzyl)-4-(5H-Dibenzo[a,d]cyclohepten-5-ylidene)piperidine hydrochloride], under “dose 10 mg/kg i.v. bolus”, the “Decrease in systolic blood pressure … (hour) 0.5” value is −129 mmHg and the “Decrease in systolic blood pressure … (hour) 4” value is −8 mmHg.
As to `Cl.Clc1cccc(CN2CCC(=C3c4ccccc4C=Cc4ccccc43)CC2)c1` [Example 129, 1-(3-Chlorobenzyl)-4-(5H-Dibenzo[a,d]cyclohepten-5-ylidene)piperidine hydrochloride], for the setting “dose 10 mg/kg i.v. bolus”, the “Decrease in systolic blood pressure … (hour) 0.5” value is given as −17 mmHg and the “Decrease in systolic blood pressure … (hour) 4” value is reported as −1 mmHg.
As to `Cl.Clc1ccc(CN2CCC(=C3c4ccccc4C=Cc4ccccc43)CC2)cc1` [Example 130, 1-(4-Chlorobenzyl)-4-(5H-Dibenzo[a,d]cyclohepten-5-ylidene)piperidine hydrochloride], for the setting “dose 10 mg/kg i.v. bolus”, the “Decrease in systolic blood pressure … (hour) 0.5” value is −42 mmHg and the “Decrease in systolic blood pressure … (hour) 4” value was determined as 9 mmHg.
Turning to `Cc1ccccc1CN1CCC(=C2c3ccccc3C=Cc3ccccc32)CC1.Cl` [Example 131, 4-(5H-Dibenzo[a,d]cyclohepten-5-ylidene)-1-(2-methylbenyl)piperidine hydrochloride], for the setting “dose 10 mg/kg i.v. bolus”, the “Decrease in systolic blood pressure … (hour) 0.5” value was −116 mmHg and the “Decrease in systolic blood pressure … (hour) 4” value came out at 2 mmHg.
`Cc1cccc(CN2CCC(=C3c4ccccc4C=Cc4ccccc43)CC2)c1.Cl` [Example 132, 4-(5H-Dibenzo[a,d]cyclohepten-5-ylidene)-1-(3-methylbenyl)piperidine hydrochloride]: under “dose 10 mg/kg i.v. bolus”, the “Decrease in systolic blood pressure … (hour) 0.5” value is listed as −106 mmHg and the “Decrease in systolic blood pressure … (hour) 4” value was −5 mmHg.
Regarding `Cc1ccc(CN2CCC(=C3c4ccccc4C=Cc4ccccc43)CC2)cc1.Cl` [Example 133, 4-(5H-Dibenzo[a,d]cyclohepten-5-ylidene)-1-(4-methylbenyl)piperidine hydrochloride], where the note is “dose 3 mg/kg i.v. bolus”, the “Decrease in systolic blood pressure … (hour) 0.5” value is on record as −146 mmHg and the “Decrease in systolic blood pressure … (hour) 4” value was −84 mmHg.
Consider `CCCCCCCN1CCC(=C2c3ccccc3C=Cc3ccccc32)CC1.Cl` [Example 134, 4-(5H-Dibenzo[a,d]cyclohepten-5-ylidene)-1-heptylpiperidine hydrochloride], for which, where the note is “dose 10 mg/kg i.v. bolus”, the “Decrease in systolic blood pressure … (hour) 0.5” value is given as −115 mmHg and the “Decrease in systolic blood pressure … (hour) 4” value is recorded as −30 mmHg.
For `CCCCCCCCCCCCCCCCCCCN1CCC(=C2c3ccccc3C=Cc3ccccc32)CC1.Cl` [Example 135, 4-(5H-Dibenzo[a,d]cyclohepten-5-ylidene)-1-nondecylpiperidine hydrochloride] the same measures were −132 mmHg and −50 mmHg.
With `CCCCCCCCCCCN1CCC(=C2c3ccccc3C=Cc3ccccc32)CC1.Cl` [Example 136, 4-(5H-Dibenzo[a,d]cyclohepten-5-ylidene)-1-undecylpiperidine hydrochloride], under “dose 10 mg/kg i.v. bolus”, the “Decrease in systolic blood pressure … (hour) 0.5” value was −100 mmHg and the “Decrease in systolic blood pressure … (hour) 4” value was −40 mmHg.
Regarding `Cl.Cl.Nc1ccccc1CN1CCC(=C2c3ccccc3C=Cc3ccccc32)CC1` [Example 138, 1-(2-Aminobenzy)-4-(5H-Dibenzo[a,d]cyclohepten-5-ylidene)piperidine dihydrochloride], where the note is “dose 10 mg/kg i.v. bolus”, the “Decrease in systolic blood pressure … (hour) 0.5” value was −129 mmHg and the “Decrease in systolic blood pressure … (hour) 4” value was −33 mmHg.
In the same order, the values of `Cl.Cl.Nc1cccc(CN2CCC(=C3c4ccccc4C=Cc4ccccc43)CC2)c1` [Example 139, 1-(3-Aminobenzy)-4-(5H-Dibenzo[a,d]cyclohepten-5-ylidene)piperidine dihydrochloride] are −139 mmHg and −89 mmHg.
As for `Cl.Cl.Nc1ccc(CN2CCC(=C3c4ccccc4C=Cc4ccccc43)CC2)cc1` [Example 140, 1-(4-Aminobenzy)-4-(5H-Dibenzo[a,d]cyclohepten-5-ylidene)piperidine dihydrochloride], for the setting “dose 3 mg/kg i.v. bolus”, the “Decrease in systolic blood pressure … (hour) 0.5” value is reported as −113 mmHg and the “Decrease in systolic blood pressure … (hour) 4” value is on record as −101 mmHg.
On to `Cl.O=[N+]([O-])c1cccc(CN2CCC(=C3c4ccccc4C=Cc4ccccc43)CC2)c1` [Example 142, 4-(5H-Dibenzo[a,d]cyclohepten-5-ylidene)-1-(3-nitrobenzyl)piperidine hydrochloride], for which, where the note is “dose 10 mg/kg i.v. bolus”, the “Decrease in systolic blood pressure … (hour) 0.5” value was −43 mmHg and the “Decrease in systolic blood pressure … (hour) 4” value was 0 mmHg.
As for `CCC(C#N)(CCCN1CCC(=C2c3ccccc3C=Cc3ccccc32)CC1)c1cccc(C(F)(F)F)c1.Cl` (stereo not drawn) [Example 149, 5-(4-(5H-Dibenzo[a,d]cyclohepten-5-ylidene)-1-piperidinyl)-2-ethyl-2-(3-trifluoromethylphenyl)valeronitrile hydrochloride], where the note is “dose 10 mg/kg i.v. bolus”, the “Decrease in systolic blood pressure … (hour) 0.5” value is −116 mmHg and the “Decrease in systolic blood pressure … (hour) 4” value is −32 mmHg.
Take `CCCCC(C#N)(CCCN1CCC(=C2c3ccccc3C=Cc3ccccc32)CC1)c1cccc(C(F)(F)F)c1.Cl` (stereo not drawn) [Example 150, 2-Butyl-5-(4-(5H-Dibenzo[a,d]cyclohepten-5-ylidene)-1-piperidinyl)-2-(3-trifluoromethylphenyl)valeronitrile hydrochloride]: for the setting “dose 10 mg/kg i.v. bolus”, the “Decrease in systolic blood pressure … (hour) 0.5” value is on record as −110 mmHg and the “Decrease in systolic blood pressure … (hour) 4” value is reported as −47 mmHg.
For the compound `CCCCCCC(C#N)(CCCN1CCC(=C2c3ccccc3C=Cc3ccccc32)CC1)c1cccc(C(F)(F)F)c1.Cl` (stereo not drawn) [Example 151, 5-(4-(5H-Dibenzo[ac]cyclohepten-5-ylidene)-1-piperidinyl)-2-hexyl-2-(3-trifluoromethylphenyl)valeronitrile hydrochloride], for the setting “dose 10 mg/kg i.v. bolus”, the “Decrease in systolic blood pressure … (hour) 0.5” value is on record as −81 mmHg and the “Decrease in systolic blood pressure … (hour) 4” value is recorded as −43 mmHg.
On to `C1=Cc2ccccc2C(=C2CCN(CCCCCCC3CCCCC3)CC2)c2ccccc21.Cl` [Example 154, 1-Cyclohexyl-6-(4-(5H-dibenzo[a,d]cyclohepten-5-ylidene)-1-piperidinyl)hexane hydrochloride], for which, for the setting “dose 10 mg/kg i.v. bolus”, the “Decrease in systolic blood pressure … (hour) 0.5” value is −131 mmHg and the “Decrease in systolic blood pressure … (hour) 4” value is on record as −105 mmHg.
